Measured values taken from PubChem BioAssay AID330 (DTP/NCI, 2004).
Inconclusive results and toxic doses are left out. The calls were made as follows: active = survival T/C of 150% or more; inactive = T/C below 125% in these data.

Test system: P388 leukemia ip, CD2F1 mice, survival T/C
Experiment: NCI In Vivo Anticancer Drug Screen. Data for tumor model P388 Leukemia (intraperitoneal) in CD2F1 (CDF1) mice
Conditions: endpoint: median survival time, higher = longer survival
Procedure, shortened: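 Mice carrying the transplanted tumor received test compound or vehicle. Survival was recorded in each group, and the value is the treated-group measurement divided by that of the vehicle-treated control group.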

[1] = dose: 50.0 mg/kg/injection, schedule: Q01DX009 (ip), vehicle: saline with Tween-80
[2] = dose: 100.0 mg/kg/injection, schedule: Q01DX009 (ip), vehicle: saline with Tween-80
[3] = dose: 200.0 mg/kg/injection, schedule: Q01DX009 (ip), vehicle: saline with Tween-80
[4] = dose: 50.0 mg/kg/injection, schedule: Q01DX005 (ip), vehicle: saline with Tween-80
[5] = dose: 100.0 mg/kg/injection, schedule: Q01DX005 (ip), vehicle: saline with Tween-80
[6] = dose: 200.0 mg/kg/injection, schedule: Q01DX005 (ip), vehicle: saline with Tween-80
[7] = dose: 6.25 mg/kg/injection, schedule: Q01DX005 (ip), vehicle: saline with Tween-80
[8] = dose: 12.5 mg/kg/injection, schedule: Q01DX005 (ip), vehicle: saline with Tween-80
[9] = dose: 25.0 mg/kg/injection, schedule: Q01DX005 (ip), vehicle: saline with Tween-80
[10] = dose: 25.0 mg/kg/injection, schedule: Q04DX003 (ip), vehicle: saline with Tween-80
[11] = dose: 50.0 mg/kg/injection, schedule: Q01DX009 (ip), vehicle: saline
[12] = dose: 100.0 mg/kg/injection, schedule: Q01DX009 (ip), vehicle: saline
[13] = dose: 200.0 mg/kg/injection, schedule: Q01DX009 (ip), vehicle: saline

Measured: T/C

COc1ccc(C(=O)/C(C)=C(/C)NCCC#N)c(OCc2ccccc2)c1OC
inactive: dose: 25.0 mg/kg/injection, schedule: Q01DX009 (ip), vehicle: other 95 % of control | dose: 50.0 mg/kg/injection, schedule: Q01DX009 (ip), vehicle: other 91 % of control | dose: 100.0 mg/kg/injection, schedule: Q01DX009 (ip), vehicle: other 95 % of control | dose: 200.0 mg/kg/injection, schedule: Q01DX009 (ip), vehicle: other 100 % of control | dose: 400.0 mg/kg/injection, schedule: Q01DX009 (ip), vehicle: other 95 % of control

CC(C)(C)N=C(CCC(C#N)(C#N)CCC(=NC(C)(C)C)Nc1ccccc1C#N)Nc1ccccc1C#N
inactive: [1] 95 % of control | [2] 92 % of control | [3] 101 % of control

CC(C)=N/N=C1\C(OC(=O)Nc2ccccc2)=Nc2ccccc21
inactive: [4] 96 % of control | [5] 95 % of control | [6] 90 % of control

COc1ccc(S(=O)(=O)N/N=C\c2cccc([N+](=O)[O-])c2O)c(OC)c1OC
inactive: [4] 100 % of control | [5] 102 % of control | [6] 96 % of control

CCCc1cc(-c2cccc3ccccc23)c(CCC)c2c1-c1cccc3cccc-2c13
inactive: [1] 97 % of control | [2] 96 % of control

Cc1cccc2c1nc(C)c1nc(-c3ccccc3)oc12
inactive: [7] 101 % of control | [8] 91 % of control | [9] 90 % of control | [4] 89 % of control | [5] 89 % of control | [6] 94 % of control

COC(CC(C)(O)C(F)(F)F)OC (centres undefined)
inactive: dose: 60.0 mg/kg/injection, schedule: Q01DX005 (ip), vehicle: saline 103 % of control | dose: 120.0 mg/kg/injection, schedule: Q01DX005 (ip), vehicle: saline 112 % of control | dose: 240.0 mg/kg/injection, schedule: Q01DX005 (ip), vehicle: saline 110 % of control

O=C1CCCc2c1ccc1ccccc21
inactive: [4] 100 % of control | [5] 101 % of control | [6] 98 % of control

C[N+]12CCN(CC1)CC2
inactive: dose: 100.0 mg/kg/injection, schedule: Q04DX003 (ip), vehicle: saline 104 % of control | dose: 200.0 mg/kg/injection, schedule: Q04DX003 (ip), vehicle: saline 95 % of control | dose: 400.0 mg/kg/injection, schedule: Q04DX003 (ip), vehicle: saline 100 % of control

O=S(=O)(Cc1ccccc1)Oc1ccccc1
inactive: dose: 100.0 mg/kg/injection, schedule: Q04DX003 (ip), vehicle: Klucel (hydroxypropylcellulose) (HPC) 109 % of control | dose: 200.0 mg/kg/injection, schedule: Q04DX003 (ip), vehicle: Klucel (hydroxypropylcellulose) (HPC) 103 % of control | dose: 400.0 mg/kg/injection, schedule: Q04DX003 (ip), vehicle: Klucel (hydroxypropylcellulose) (HPC) 94 % of control

CC(=O)OC(C)(C)c1ccccc1[S+]1OC(C)(C)c2ccccc21 (centres undefined)
inactive: dose: 25.0 mg/kg/injection, schedule: Q01DX001 (ip), vehicle: other 101 % of control | dose: 50.0 mg/kg/injection, schedule: Q01DX001 (ip), vehicle: other 104 % of control | dose: 100.0 mg/kg/injection, schedule: Q01DX001 (ip), vehicle: other 107 % of control

CCOC(=O)c1sc2nc(C)cc(C)c2c1N
inactive: [7] 95 % of control | [8] 100 % of control | [9] 98 % of control

C[n+]1c(-c2ccccc2)c2cc(N)ccc2c2ccc(N)cc21
inactive: dose: 1.56 mg/kg/injection, schedule: Q04DX003 (ip), vehicle: saline with Tween-80 106 % of control | dose: 3.13 mg/kg/injection, schedule: Q04DX003 (ip), vehicle: saline with Tween-80 107 % of control | dose: 6.25 mg/kg/injection, schedule: Q04DX003 (ip), vehicle: saline with Tween-80 118 % of control | [10] 124 % of control

O=C(CC(=NCCN=C(CC(=O)c1ccccc1)c1ccccc1)c1ccccc1)c1ccccc1
inactive: [1] 112 % of control | [2] 100 % of control | [3] 100 % of control

C(=C\c1ccc2ccccc2n1)/c1ccc2c(c1)OCO2
inactive: [2] 105 % of control | [3] 95 % of control | dose: 400.0 mg/kg/injection, schedule: Q01DX009 (ip), vehicle: saline with Tween-80 110 % of control

O=C1NC(Cc2ccccc2)C(=O)N2CCCC12 (centres undefined)
inactive: [11] 100 % of control | [12] 96 % of control | [13] 101 % of control

OC1OC(Cn2c3ccccc3c3ccccc32)C(O)C(O)C1O (centres undefined)
inactive: dose: 50.0 mg/kg/injection, schedule: Q01DX001 (ip), vehicle: saline with Tween-80 100 % of control | dose: 100.0 mg/kg/injection, schedule: Q01DX001 (ip), vehicle: saline with Tween-80 107 % of control | dose: 200.0 mg/kg/injection, schedule: Q01DX001 (ip), vehicle: saline with Tween-80 114 % of control

CCCC(C)C1(CC)C(=O)N(CCCl)C(=O)N(CCCl)C1=O (centres undefined)
inactive: [1] 93 % of control | [2] 99 % of control | [3] 93 % of control

CC1=C(C)OP(=O)(O)O1
inactive: [1] 100 % of control | [11] 100 % of control | [2] 100 % of control | [12] 96 % of control | [3] 95 % of control | [13] 100 % of control

CC(C)C1OC(/C=C/c2ccccc2)OCC1(C)C (centres undefined)
inactive: [10] 102 % of control | dose: 50.0 mg/kg/injection, schedule: Q04DX003 (ip), vehicle: saline with Tween-80 102 % of control | dose: 100.0 mg/kg/injection, schedule: Q04DX003 (ip), vehicle: saline with Tween-80 104 % of control | dose: 200.0 mg/kg/injection, schedule: Q04DX003 (ip), vehicle: saline with Tween-80 98 % of control | dose: 400.0 mg/kg/injection, schedule: Q04DX003 (ip), vehicle: saline with Tween-80 102 % of control

CNc1cc(Cl)c(Cl)cc1[N+](=O)[O-]
inactive: dose: 37.5 mg/kg/injection, schedule: Q04DX003 (ip), vehicle: saline sonified 95 % of control | dose: 75.0 mg/kg/injection, schedule: Q04DX003 (ip), vehicle: saline sonified 95 % of control | dose: 150.0 mg/kg/injection, schedule: Q04DX003 (ip), vehicle: saline sonified 95 % of control

C#C/C=C/CC1OC(C(Br)CC)CC(OC(C)=O)C(Cl)CC1Cl (centres undefined)
inactive: dose: 3.75 mg/kg/injection, schedule: Q01DX005 (ip), vehicle: Klucel (hydroxypropylcellulose) (HPC) 97 % of control | dose: 7.5 mg/kg/injection, schedule: Q01DX005 (ip), vehicle: Klucel (hydroxypropylcellulose) (HPC) 120 % of control | dose: 15.0 mg/kg/injection, schedule: Q01DX005 (ip), vehicle: Klucel (hydroxypropylcellulose) (HPC) 100 % of control | dose: 30.0 mg/kg/injection, schedule: Q01DX005 (ip), vehicle: Klucel (hydroxypropylcellulose) (HPC) 98 % of control

COc1cccc2c1C(=O)C(C1CO1)=CC2=O (centres undefined)
inactive: dose: 12.5 mg/kg/injection, schedule: Q01DX001 (ip), vehicle: Klucel (hydroxypropylcellulose) (HPC) 88 % of control | dose: 25.0 mg/kg/injection, schedule: Q01DX001 (ip), vehicle: Klucel (hydroxypropylcellulose) (HPC) 95 % of control

O=P1(Oc2ccc(N=C=S)cc2)OCCCO1
inactive: dose: 60.0 mg/kg/injection, schedule: Q01DX005 (ip), vehicle: Klucel (hydroxypropylcellulose) (HPC) 102 % of control | dose: 120.0 mg/kg/injection, schedule: Q01DX005 (ip), vehicle: Klucel (hydroxypropylcellulose) (HPC) 103 % of control | dose: 240.0 mg/kg/injection, schedule: Q01DX005 (ip), vehicle: Klucel (hydroxypropylcellulose) (HPC) 104 % of control

COc1cc(C(C)c2cc3c(cc2OCC(=O)O)OCO3)cc(OC)c1OC (centres undefined)
inactive: dose: 50.0 mg/kg/injection, schedule: Q01DX005 (ip), vehicle: distilled water + Tween-80 102 % of control | dose: 100.0 mg/kg/injection, schedule: Q01DX005 (ip), vehicle: distilled water + Tween-80 97 % of control | dose: 200.0 mg/kg/injection, schedule: Q01DX005 (ip), vehicle: distilled water + Tween-80 93 % of control

CN(C(=S)Nc1ccccc1)c1nnn(C)n1
inactive: [1] 98 % of control | [2] 100 % of control | [3] 107 % of control

O=C1C2Nc3ccccc3N=C2OC1c1cccc([N+](=O)[O-])c1 (centres undefined)
inactive: dose: 60.0 mg/kg/injection, schedule: Q01DX005 (ip), vehicle: Klucel + Tween-80 107 % of control | dose: 120.0 mg/kg/injection, schedule: Q01DX005 (ip), vehicle: Klucel + Tween-80 97 % of control | dose: 240.0 mg/kg/injection, schedule: Q01DX005 (ip), vehicle: Klucel + Tween-80 91 % of control

O=C1OC2CCCC1O2 (centres undefined)
inactive: [4] 106 % of control | [5] 100 % of control | [6] 98 % of control
